Consider three compounds from US4393076A, “Anti-inflammatory and analgesic gel composition” (priority 1980, dated 1983).

The conditions of data set [1]: for Stability: indomethacin: to alkalies, ketoprofen and flurbiprofen: to the gel base.
For data set [2] the following is noted: orally administered; cited from earlier work.
In data set [3] the test system is gastric mucous membrane. Nature of the data set: Gastric mucous membrane troubles in rats (ulceration). Particulars: oral, 1 mg/Kg, 6 hours. The class given is in vivo, rats (Wister strain, male). On the procedure: Anti-inflammatory activity on gastric mucous membrane troubles in rats
Male rats of Wister strain, each weighing about 200 g, were fasted except for unlimited feeding of water for a time period of 24 hours, after which each of the test compounds shown in Table 4 was administered to the rats so fasted. […] Six hours after said administration, the test animals were slaughtered to remove their stomachs which were incised along the greater curvature thereof to visually observe whether or not an ulcer was formed at the gastric mucous membrane of their stomachs. The ulceration ratio (%) was calculated from the following equation: [formula]

Molecules are shown by their SMILES.

As to `CC(C(=O)O)c1ccc(-c2ccccc2)c(F)c1` (centres unmarked) [flurbiprofen], the “Solubility in the gel base” value in data set [1] (in words) was “excellent”. Further, the Stability entry in data set [1] is recorded as “excellent in stability”.
Take `COc1ccc2c(c1)c(CC(=O)O)c(C)n2C(=O)c1ccc(Cl)cc1` [indomethacin]: the “Medicinal efficacy compared with the effective ingredient of the composition of this invention” value in data set [2] is given as “equal or slightly superior in medicinal efficacy”. For the same compound, in data set [1] (gel base, in words), the Crystallization result is “apt to crystallize out”. Besides, in data set [1] (in words), the “Solubility in the gel base” value was “inferior in solubility in the gel base”. In data set [1], the Stability result is recorded as “unstable to alkalies”.
`COc1ccc2c(c1)c(CC(=O)O)c(C)n2C(=O)c1ccc(Cl)cc1` [Indomethacin powder]: the Ulceration ratio in data set [3] is on record as 100.0%; in data set [3] (listed as indomethacin powder), 100%.
